Assay results: BindingDB's records for patent US9682141 (Intellikine LLC, 2017)

Tests used:
[1] = target: Phosphatidylinositol 4,5-bisphosphate 3-kinase catalytic subunit beta isoform (Homo sapiens, UniProt P42338); assay: PI 3-Kinase HTRF Assay; conditions: 25 °C
[2] = target: Phosphatidylinositol 4,5-bisphosphate 3-kinase catalytic subunit alpha isoform (Homo sapiens, UniProt P42336); assay: PI 3-Kinase HTRF Assay; conditions: 25 °C
Chain of Phosphatidylinositol 4,5-bisphosphate 3-kinase catalytic subunit alpha isoform (P42336 whole entry, canonical isoform): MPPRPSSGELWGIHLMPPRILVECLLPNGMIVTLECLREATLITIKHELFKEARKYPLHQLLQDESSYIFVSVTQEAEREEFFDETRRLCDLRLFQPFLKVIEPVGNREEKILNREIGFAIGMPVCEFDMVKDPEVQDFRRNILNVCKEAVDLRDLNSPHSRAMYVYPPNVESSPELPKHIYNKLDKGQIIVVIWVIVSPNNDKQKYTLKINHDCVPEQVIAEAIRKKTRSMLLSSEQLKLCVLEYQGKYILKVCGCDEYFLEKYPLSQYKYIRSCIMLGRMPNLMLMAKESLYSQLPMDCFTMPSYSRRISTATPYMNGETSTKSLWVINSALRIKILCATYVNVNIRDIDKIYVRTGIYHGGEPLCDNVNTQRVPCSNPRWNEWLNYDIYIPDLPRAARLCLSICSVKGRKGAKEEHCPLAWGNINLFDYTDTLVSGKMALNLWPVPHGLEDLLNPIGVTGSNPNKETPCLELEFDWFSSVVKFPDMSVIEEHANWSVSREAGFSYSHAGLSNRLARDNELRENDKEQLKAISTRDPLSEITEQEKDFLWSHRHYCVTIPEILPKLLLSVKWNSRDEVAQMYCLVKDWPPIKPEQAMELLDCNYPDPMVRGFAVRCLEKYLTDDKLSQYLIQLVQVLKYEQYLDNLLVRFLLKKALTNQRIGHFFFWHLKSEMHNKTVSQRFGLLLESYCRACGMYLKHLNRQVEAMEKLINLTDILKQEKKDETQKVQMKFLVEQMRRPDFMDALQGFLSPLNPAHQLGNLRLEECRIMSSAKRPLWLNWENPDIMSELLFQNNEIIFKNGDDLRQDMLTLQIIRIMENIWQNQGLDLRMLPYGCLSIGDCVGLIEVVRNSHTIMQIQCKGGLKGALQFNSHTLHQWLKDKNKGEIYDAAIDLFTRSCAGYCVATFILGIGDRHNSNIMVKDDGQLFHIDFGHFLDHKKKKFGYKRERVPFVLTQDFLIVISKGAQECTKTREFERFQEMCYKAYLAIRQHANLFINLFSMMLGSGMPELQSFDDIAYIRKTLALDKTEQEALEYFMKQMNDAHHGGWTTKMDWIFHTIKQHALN

Chain of Phosphatidylinositol 4,5-bisphosphate 3-kinase catalytic subunit beta isoform (P42338 whole entry, canonical isoform): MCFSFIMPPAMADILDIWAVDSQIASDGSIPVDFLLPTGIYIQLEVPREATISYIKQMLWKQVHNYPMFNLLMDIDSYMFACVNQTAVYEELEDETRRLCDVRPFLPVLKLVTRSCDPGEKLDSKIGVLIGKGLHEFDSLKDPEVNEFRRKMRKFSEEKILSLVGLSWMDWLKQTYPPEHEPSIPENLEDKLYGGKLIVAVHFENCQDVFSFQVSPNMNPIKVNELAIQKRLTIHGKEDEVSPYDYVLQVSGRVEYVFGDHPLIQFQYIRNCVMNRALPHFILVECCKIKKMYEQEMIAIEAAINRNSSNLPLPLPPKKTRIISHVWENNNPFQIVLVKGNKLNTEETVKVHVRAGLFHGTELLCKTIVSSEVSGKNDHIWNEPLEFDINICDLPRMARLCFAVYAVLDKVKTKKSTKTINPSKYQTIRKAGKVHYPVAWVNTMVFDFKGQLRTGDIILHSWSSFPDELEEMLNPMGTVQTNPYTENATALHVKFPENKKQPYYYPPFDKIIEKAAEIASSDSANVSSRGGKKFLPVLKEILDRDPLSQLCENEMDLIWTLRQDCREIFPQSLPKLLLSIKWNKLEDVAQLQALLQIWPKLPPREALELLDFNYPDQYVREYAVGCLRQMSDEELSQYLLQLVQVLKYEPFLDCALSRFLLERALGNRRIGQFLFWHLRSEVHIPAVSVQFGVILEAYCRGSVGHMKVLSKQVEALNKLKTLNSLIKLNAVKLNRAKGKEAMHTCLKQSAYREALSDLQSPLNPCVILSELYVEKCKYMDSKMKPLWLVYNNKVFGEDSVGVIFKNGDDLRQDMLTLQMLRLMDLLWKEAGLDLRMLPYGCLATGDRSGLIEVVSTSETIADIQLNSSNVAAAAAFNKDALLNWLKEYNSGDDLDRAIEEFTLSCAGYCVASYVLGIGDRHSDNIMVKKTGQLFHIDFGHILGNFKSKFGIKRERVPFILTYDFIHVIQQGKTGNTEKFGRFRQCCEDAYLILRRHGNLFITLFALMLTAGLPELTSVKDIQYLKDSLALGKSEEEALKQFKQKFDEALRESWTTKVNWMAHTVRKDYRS

IC50 [1] [µM]	IC50 [2] [µM]	SMILES
< 10	< 0.1	Nc1nc2cc(-c3ccc4ncn(-c5ccccc5)c4c3)ccc2o1 [US9682141, 11]
< 10	–	Nc1nc2cc(-c3ccc4ncc(-c5ccncc5)n4c3)ccc2o1 [US9682141, 6]
